≈ marks a conversion by molar mass, not a printed value. A value given as a limit tells only on which side of the number the result lay.

Holding throughout (type): functional
Assay [1] deals with Acinetobacter baumannii. The experiment in a line: Antibacterial activity against blaOXA-24-positive Acinetobacter baumannii isolate RUH134 harboring plasmid ABVA01 by CLSI broth microdilution method in presence of Sulbactam.
In assay [2] the test system is Acinetobacter baumannii. The experiment in a line: Antibacterial activity against blaOXA-24-positive Acinetobacter baumannii isolate VA-566/00 by CLSI broth microdilution method in presence of Sulbactam. (In general: In broth dilution the organism is exposed to a series of concentrations in liquid medium.)
The subject of assay [3] is Acinetobacter baumannii. Briefly: Antibacterial activity against blaOXA-24-positive Acinetobacter baumannii isolate RUH134 by CLSI broth microdilution method in presence of Sulbactam.
For assay [4], the system named is Acinetobacter baumannii. Briefly: Antibacterial activity against blaOXA-24-positive Acinetobacter baumannii isolate N50 by CLSI broth microdilution method in presence of Sulbactam.
In assay [5] the test system is Acinetobacter baumannii. Briefly: Antibacterial activity against blaOXA-24-positive Acinetobacter baumannii isolate RUH134 by CLSI broth microdilution method.
The subject of assay [6] is Acinetobacter baumannii. Briefly: Antibacterial activity against blaOXA-24-positive Acinetobacter baumannii isolate VA-566/00 by CLSI broth microdilution method.
Assay [7] concerns Acinetobacter baumannii. Briefly: Antibacterial activity against blaOXA-24-positive Acinetobacter baumannii isolate RUH134 harboring plasmid ABVA01 by CLSI broth microdilution method.
The test system of assay [8] is Acinetobacter baumannii. The experiment in a line: Antibacterial activity against blaOXA-24-positive Acinetobacter baumannii isolate N50 by CLSI broth microdilution method.

In the case of `CC1(C)S[C@@H]2[C@H](NC(=O)[C@H](N)c3ccccc3)C(=O)N2[C@H]1C(=O)O` [AMPICILLIN], the minimum inhibitory concentration (MIC) in assay [1] was 64 µg/mL; in assay [2] it was 64 µg/mL; in assay [3] it was 64 µg/mL; in assay [4], 32 µg/mL.

For `NCC[C@H](O)C(=O)N[C@@H]1C[C@H](N)[C@@H](O[C@H]2O[C@H](CN)[C@@H](O)[C@H](O)[C@H]2O)[C@H](O)[C@H]1O[C@H]1O[C@H](CO)[C@@H](O)[C@H](N)[C@H]1O` [AMIKACIN], the minimal inhibitory concentration (MIC) amounted to 4 µg/mL (≈ 6.83 µM) in assay [5], 64 µg/mL (≈ 109 µM) in assay [6], 4 µg/mL (≈ 6.83 µM) in assay [7] and 256 µg/mL (≈ 437 µM) in assay [8].

For the molecule COLISTIN, the MIC in assay [5] was 0.5 µg/mL; in assay [6] it was 0.5 µg/mL; in assay [7] it was 0.5 µg/mL; in assay [8], more than 8 µg/mL.

In the case of `CC(C)(O/N=C(\C(=O)N[C@@H]1C(=O)N2C(C(=O)[O-])=C(C[n+]3ccccc3)CS[C@H]12)c1csc(N)n1)C(=O)O` [CEFTAZIDIME], the MIC in assay [5] is 16 µg/mL (≈ 29.3 µM); in assay [6] it was more than 256 µg/mL; in assay [7] it was 16 µg/mL (≈ 29.3 µM); in assay [8], more than 256 µg/mL.

Consider `C[C@@H](O)[C@H]1C(=O)N2C(C(=O)O)=C(S[C@@H]3CN[C@H](C(=O)N(C)C)C3)[C@H](C)[C@H]12` [MEROPENEM], for which the MIC in assay [5] was found to be 1 µg/mL (≈ 2.61 µM); in assay [6], 256 µg/mL (≈ 668 µM); in assay [7], 128 µg/mL (≈ 334 µM); in assay [8], 128 µg/mL (≈ 334 µM).

As to GENTAMICIN, the MIC in assay [5], in assay [6], in assay [7] and in assay [8] was more than 256 µg/mL throughout.

Turning to `C[C@@H](O)[C@H]1C(=O)N2C(C(=O)O)=C(SCCNC=N)C[C@H]12` [IMIPENEM ANHYDROUS], the MIC was 0.25 µg/mL (≈ 0.835 µM) in assay [5], 256 µg/mL (≈ 855 µM) in assay [6], 64 µg/mL (≈ 214 µM) in assay [7] and 128 µg/mL (≈ 428 µM) in assay [8].

For `CN(C)c1cc(NC(=O)CNC(C)(C)C)c(O)c2c1C[C@H]1C[C@H]3[C@H](N(C)C)C(O)=C(C(N)=O)C(=O)[C@@]3(O)C(O)=C1C2=O` [TIGECYCLINE], the MIC stood at 1 µg/mL (≈ 1.71 µM) in assay [5], 4 µg/mL (≈ 6.83 µM) in assay [6], 1 µg/mL (≈ 1.71 µM) in assay [7] and 1 µg/mL (≈ 1.71 µM) in assay [8].

Usually MIC stands for the lowest concentration found to suppress growth.
